Data as given in patent publication US12139487B2, “Compounds and uses thereof” (Foghorn Therapeutics Inc., priority 2022, dated 2024).

System: BRM-dependent transcription (BRG1 mutant lung cancer cell line A549)
Experiment: BRM-dependent transcription, MMTV luciferase reporter in BRG1 mutant A549 cells
Type: cell-based
Details: Table 11; for IC50: A549-MMTV luciferase reporter, dexamethasone induced, 6 hours; for Ratio (MDA-MMTV IC50 (μM) divided by A549-MMTV IC50 (μM)): MMTV luciferase reporter cell lines, selectivity BRG1/BRM
Procedure, shortened: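 A549 (BRG1-mutant) cells engineered with a BRM-dependent MMTV luciferase reporter; transcription induced with dexamethasone in presence of compound at various concentrations. Luminescence read 6 h after stimulation.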

Row | IC50 (Homo sapiens, A549, 6 h) | Ratio (MDA-MMTV IC50 (μM) divided by A549-MMTV IC50 (μM)) | IC50 | SMILES
1 | 22.6 nM | 24.79 |  | O=C(NCc1cc2nc(-c3cccc(OC(F)F)c3F)ccc2cn1)c1cc(Cl)c2c(c1)S(=O)(=O)[C@@H](F)COC2 [Compound 444]
2 | 21.2 nM | 22.07 |  | CCOc1nc(C(C)(F)F)ccc1-c1ccc2cnc(CNC(=O)c3cc(Cl)c4c(c3)S(=O)(=O)[C@@H](F)COC4)cc2n1 [Compound 445]
3 | 13.5 nM | 29.71 |  | [2H]C([2H])([2H])C([2H])([2H])Oc1nc(C(F)F)ccc1-c1ccc2cnc(CNC(=O)c3cc(C(F)F)c4c(c3)S(=O)(=O)[C@@H](F)COC4)cc2n1 [Compound 446]
4 | 13.8 nM | 22.11 |  | O=C(NCc1cc2nc(-c3ccc(OC(F)F)c([C@H]4CC4(F)F)n3)ccc2cn1)c1cc(Cl)c2c(c1)S(=O)(=O)[C@@H](F)COC2 [Compound 447]
5 | 19 nM | 37.60 |  | O=C(NCc1cc2nc(-c3ccc(OC(F)F)c(C4CC4(F)F)n3)ccc2cn1)c1cc(Br)c2c(c1)S(=O)(=O)[C@@H](F)CCO2 (stereo partly drawn) [Compound 448]
6 | 7.4 nM | 37.87 |  | O=C(NCc1cc2nc(-c3ccc(OC(F)F)c([C@@H]4CC4(F)F)n3)ccc2cn1)c1cc(Cl)c2c(c1)S(=O)(=O)[C@@H](F)COC2 [Compound 449]
7 | 15.4 nM | 35.43 |  | COc1nc([C@@H](F)CF)ccc1-c1ccc2cnc(CNC(=O)c3cc(Br)c4c(c3)S(=O)(=O)[C@@H](F)COC4)cc2n1 [Compound 450]
8 | 5.6 nM | 25.86 |  | O=C(NCc1cc2nc(-c3ccc(OC(F)F)c([C@@H]4CC4(F)F)n3)ccc2cn1)c1cc(C(F)F)c2c(c1)S(=O)(=O)[C@@H](F)COC2 [Compound 451]
9 | 20.4 nM | 28.85 |  | O=C(NCc1cc2nc(-c3cncc(OC(F)F)n3)ccc2cn1)c1cc(Cl)c2c(c1)S(=O)(=O)[C@@H](F)COC2 [Compound 452]
10 | 8.8 nM | 28.72 |  | O=C(NCc1cc2nc(-c3ccc([C@H](F)C(F)F)c(C4CC4)n3)ccc2cn1)c1cc(F)c2c(c1)S(=O)(=O)[C@@H](F)COC2 [Compound 453]
11 | 14.2 nM | 29.67 |  | [2H]C([2H])([2H])C([2H])([2H])Oc1nc([C@@H](F)CF)ccc1-c1ccc2cnc(CNC(=O)c3cc(Cl)c4c(c3)S(=O)(=O)[C@@H](F)CCO4)cc2n1 [Compound 454]
12 | 10.4 nM | 45.81 |  | [2H]C([2H])([2H])Oc1ccc(-c2ccc3cnc(CNC(=O)c4cc(C(F)F)c5c(c4)S(=O)(=O)[C@@H](F)COC5)cc3n2)nc1C1CC1(F)F (stereo partly drawn) [Compound 455]
13 |  | 40.89 | 9.7 nM | CCOc1nc([C@@H](F)CF)ccc1-c1ccc2cnc(CNC(=O)c3cc(Br)c4c(c3)S(=O)(=O)[C@@H](F)COC4)cc2n1 [Compound 456]
14 |  | 33.28 | 7.2 nM | CCOc1nc([C@@H](F)CF)ccc1-c1ccc2cnc(CNC(=O)c3cc(C(F)F)c4c(c3)S(=O)(=O)[C@@H](F)COC4)cc2n1 [Compound 457]
15 | 15.6 nM | 23.65 |  | O=C(NCc1cc2nc(-c3cccc4c3OC(F)(F)O4)ccc2cn1)c1cc(F)c2c(c1)S(=O)(=O)[C@@H](F)COC2 [Compound 458]
16 | 15.3 nM | 27.87 |  | [2H]C([2H])([2H])Oc1ccc(-c2ccc3cnc(CNC(=O)c4cc(C(F)F)c5c(c4)S(=O)(=O)[C@@H](F)COC5)cc3n2)nc1[C@H]1CC1(F)F [Compound 459]
17 |  | 41.47 | 10 nM | CCOc1nc([C@H](F)CF)ccc1-c1ccc2cnc(CNC(=O)c3cc(C(F)F)c4c(c3)S(=O)(=O)[C@@H](F)COC4)cc2n1 [Compound 460]
18 | 25.9 nM | 56.88 |  | CCOc1nc([C@H](F)CF)ccc1-c1ccc2cnc(CNC(=O)c3cc(Br)c4c(c3)S(=O)(=O)[C@@H](F)COC4)cc2n1 [Compound 461]
19 | 8.1 nM | 25.94 |  | COCCOc1cnc2c(c1)C(F)(F)CCN2c1ccc2cnc(CNC(=O)c3cc(Br)c4c(c3)S(=O)(=O)[C@@H](F)CCO4)cc2n1 [Compound 462]
20 | 6.2 nM | 35.00 |  | [2H]C([2H])([2H])C([2H])([2H])Oc1ccc(-c2ccc3cnc(CNC(=O)c4cc(F)c5c(c4)S(=O)(=O)[C@@H](F)COC5)cc3n2)nc1C1CC1(F)F (stereo partly drawn) [Compound 463]
21 | 7.1 nM | 39.23 |  | [2H]C([2H])([2H])C([2H])([2H])Oc1ccc(-c2ccc3cnc(CNC(=O)c4cc(F)c5c(c4)S(=O)(=O)[C@@H](F)COC5)cc3n2)nc1[C@@H]1CC1(F)F [Compound 464]

Row | IC50 (Homo sapiens, A549, 6 h) | Ratio (MDA-MMTV IC50 (μM) divided by A549-MMTV IC50 (μM)) | IC50 | SMILES
22 | 22.6 nM | 55.20 |  | O=C(NCc1cc2nc(-c3cnc(OC(F)F)c(C4CC4)n3)ccc2cn1)c1cc(C(F)F)c2c(c1)S(=O)(=O)[C@@H](F)COC2 [Compound 465]
23 | 24.6 nM | 48.16 |  | CN1Cc2c(Cl)cc(C(=O)NCc3cc4nc(-c5cccc(OC(F)F)n5)ccc4cn3)cc2S(=O)(=O)[C@H](F)C1 [Compound 466]
24 | 17 nM | 24.85 |  | COc1nc(C(C)(F)F)ccc1-c1ccc2cnc(CNC(=O)c3cc(C(F)F)c4c(c3)S(=O)(=O)[C@@H](F)COC4)cc2n1 [Compound 467]
25 |  | 25.28 | 4.2 nM | CCOc1nc(C(C)(F)F)ccc1-c1ccc2cnc(CNC(=O)c3cc(F)c4c(c3)S(=O)(=O)[C@@H](F)COC4)cc2n1 [Compound 468]
26 |  | 29.42 | 4.1 nM | C[C@@H]1CCN1c1cnc2c(-c3ccc4cnc(CNC(=O)c5cc(F)c6c(c5)S(=O)(=O)[C@@H](F)COC6)cc4n3)cccc2c1 [Compound 470]
27 |  | 25.44 | 8.2 nM | CCOc1nc(C(C)(F)F)ccc1-c1ccc2cnc(CNC(=O)c3cc(F)c4c(c3)S(=O)(=O)[C@@H](F)COC4)cc2n1 [Compound 471]
28 | 11 nM | 39.75 |  | CCOc1nn(-c2ccc3cnc(CNC(=O)c4cc(Cl)c5c(c4)S(=O)(=O)[C@@H](F)COC5)cc3n2)cc1F [Compound 472]
29 | 17.1 nM | 22.61 |  | O=C(NCc1cc2nc(-n3cc(F)c(OC(F)F)n3)ccc2cn1)c1cc(F)c2c(c1)S(=O)(=O)[C@@H](F)COC2 [Compound 473]
30 | 18.6 nM | 42.97 |  | O=C(NCc1cc2nc(-n3cc(F)c(OC(F)F)n3)ccc2cn1)c1cc(Cl)c2c(c1)S(=O)(=O)[C@@H](F)COC2 [Compound 474]
31 | 7.1 nM | 37.21 |  | CCOc1nc([C@@H](F)CF)ccc1-c1ccc2cnc(CNC(=O)c3cc(Cl)c4c(c3)S(=O)(=O)[C@@H](F)COC4)cc2n1 [Compound 475]
32 | 22.4 nM | 21.45 |  | O=C(NCc1cc2nc(-c3ccc([C@@H](F)C(F)F)c(C4CC4)n3)ccc2cn1)c1cc(C(F)F)c2c(c1)S(=O)(=O)[C@@H](F)COC2 [Compound 476]
33 | 7.4 nM | 52.71 |  | CCOc1nccc2c1OCCN2c1ccc2cnc(CNC(=O)c3cc(Cl)c4c(c3)S(=O)(=O)[C@@H](F)COC4)cc2n1 [Compound 477]
34 | 10.4 nM | 33.55 |  | [2H]C([2H])([2H])C([2H])([2H])Oc1nc([C@H](F)CF)ccc1-c1ccc2cnc(CNC(=O)c3cc(C(F)F)c4c(c3)S(=O)(=O)[C@@H](F)COC4)cc2n1 [Compound 478]
35 | 6.2 nM | 35.46 |  | [2H]C([2H])([2H])C([2H])([2H])Oc1nc([C@@H](F)CF)ccc1-c1ccc2cnc(CNC(=O)c3cc(C(F)F)c4c(c3)S(=O)(=O)[C@@H](F)COC4)cc2n1 [Compound 479]
36 | 9.4 nM | 38.09 |  | [2H]C([2H])([2H])Oc1ccc(-c2ccc3cnc(CNC(=O)c4cc(Br)c5c(c4)S(=O)(=O)[C@@H](F)COC5)cc3n2)nc1C1CC1(F)F (stereo partly drawn) [Compound 480]
37 |  | 50.79 | 10.2 nM | CCOc1nc([C@H](F)CF)ccc1-c1ccc2cnc(CNC(=O)c3cc(Cl)c4c(c3)S(=O)(=O)[C@@H](F)COC4)cc2n1 [Compound 481]
38 | 12 nM | 25.21 |  | O=C(NCc1cc2nc(-c3ccc([C@@H](F)C(F)F)c(C4CC4)n3)ccc2cn1)c1cc(Cl)c2c(c1)S(=O)(=O)[C@@H](F)COC2 [Compound 482]
39 | 11.1 nM | 28.21 |  | O=C(NCc1cc2nc(-c3ccc([C@@H](F)C(F)F)c(C4CC4)n3)ccc2cn1)c1cc(Br)c2c(c1)S(=O)(=O)[C@@H](F)COC2 [Compound 483]
40 | 5.4 nM | 28.00 |  | [2H]C([2H])([2H])OCCOc1cnc2c(c1)OCCN2c1ccc2cnc(CNC(=O)c3cc(C(F)F)c4c(c3)S(=O)(=O)[C@@H](F)COC4)cc2n1 [Compound 484]
41 | 12 nM | 49.42 |  | [2H]C([2H])([2H])C([2H])([2H])Oc1nc([C@H](F)CF)ccc1-c1ccc2cnc(CNC(=O)c3cc(Br)c4c(c3)S(=O)(=O)[C@@H](F)COC4)cc2n1 [Compound 485]
42 | 13.3 nM | 33.87 |  | [2H]C([2H])([2H])C([2H])([2H])Oc1nc(C(F)F)ccc1-c1ccc2cnc(CNC(=O)c3cc(Br)c4c(c3)S(=O)(=O)[C@@H](F)COC4)cc2n1 [Compound 486]
